Assay results reported in ChEMBL document CHEMBL1147602, “DNA binding ligands targeting drug-resistant Gram-positive bacteria. Part 1: Internal benzimidazole derivatives” (Bioorg Med Chem Lett, 2004).
≈ marks a conversion by molar mass, not a printed value. Where “and” joins values, the source holds several entries; their conditions need not be identical. Identical values can stand only once. Calls of active or inactive are those of the source. The calls are words filed in the database; no cut-off is given here.

Columns and labels:
Enterococcus faecalis [1] = assay: Antibacterial activity against vancomycin-resistant Enterococcus faecalis ATCC 51559 strain; assay type: functional
Escherichia coli = assay: Antibacterial activity against Escherichia coli ATCC 25922 strain; assay type: functional
Streptococcus pneumoniae [2] = assay: Antibacterial activity against penicillin-resistant Streptococcus pneumoniae ATCC 51422 strain; assay type: functional
Streptococcus pneumoniae [3] = assay: Antibacterial activity against penicillin-sensitive Streptococcus pneumoniae ATCC 49619 strain; assay type: functional
Staphylococcus aureus [4] = assay: Antibacterial activity against methicillin-resistant Staphylococcus aureus ATCC 27660 strain; assay type: functional
Staphylococcus aureus [5] = assay: Antibacterial activity against methicillin-sensitive Staphylococcus aureus ATCC 13709 strain; assay type: functional
Enterococcus faecalis [6] = assay: Antibacterial activity against vancomycin-sensitive Enterococcus faecalis ATCC 29212 strain; assay type: functional
Nucleic Acid = assay: Dissociation constant for the DNA binding was determined by quantitative DNase I footprint titration; assay type: nucleic-acid assay
Enterococcus faecalis [7] = assay: Antibacterial activity against vancomycin-resistant Enterococcus faecalis ATCC 51559 strain; NA means not analyzed; assay type: functional, organism-based
Streptococcus pneumoniae [8] = assay: Antibacterial activity against penicillin-resistant Streptococcus pneumoniae ATCC 51422 strain; NA means not analyzed; assay type: functional, organism-based
Moraxella catarrhalis = assay: Antibacterial activity against Moraxella catarrhalis ATCC 25238 strain; assay type: functional
Pseudomonas aeruginosa = assay: Antibacterial activity against Pseudomonas aeruginosa (ATCC 27853) strain; inactive; assay type: functional
Haemophilus influenzae = assay: Antibacterial activity against Haemophilus influenzae ATCC 78025 strain; assay type: functional
Mus musculus = assay: In vivo protective dose for efficacy against a lethal infection of methicillin-resistant Staphylococcus aureus in a mouse peritoneal sepsis model administered intravenously; assay type: functional
Staphylococcus aureus [9] = assay: Antibacterial activity against methicillin-susceptible Staphylococcus aureus ATCC 13709 strain; assay type: functional
Enterococcus faecalis [10] = assay: Antibacterial activity against vancomycin-susceptible Enterococcus faecalis ATCC 29212 strain; assay type: functional
Staphylococcus aureus [11] = assay: Antibacterial activity against methicillin-susceptible Staphylococcus aureus ATCC 13709 strain; (Range is 1-2 ug/mL); assay type: functional

Row | MIC (Enterococcus faecalis [10]) | MIC (Staphylococcus aureus [11]) | Compound | MIC (Enterococcus faecalis [1]) | MIC (Escherichia coli) | MIC (Streptococcus pneumoniae [2]) | MIC (Streptococcus pneumoniae [3]) | MIC (Staphylococcus aureus [4]) | MIC (Staphylococcus aureus [5]) | MIC (Enterococcus faecalis [6]) | Kd (Nucleic Acid) | MIC (Enterococcus faecalis [7]) | MIC (Streptococcus pneumoniae [8]) | MIC (Moraxella catarrhalis) | MIC (Pseudomonas aeruginosa) | MIC (Haemophilus influenzae) | Protective dose (Mus musculus) | MIC (Staphylococcus aureus [9])
1 |  |  | Cn1cc(NC(=O)c2ccc(F)cc2F)cc1C(=O)Nc1cc(-c2nc3cc(C(=O)NCCN4CCOCC4)ccc3[nH]2)n(C)c1 | 0.25 µg/mL (≈ 0.396 µM) | 4 µg/mL (≈ 6.34 µM) | 0.06 µg/mL (≈ 0.0951 µM) | 0.06 µg/mL (≈ 0.0951 µM) | 0.13 µg/mL (≈ 0.206 µM) | 0.25 µg/mL (≈ 0.396 µM) | 0.06 µg/mL (≈ 0.0951 µM) |  |  |  |  |  |  |  | 
2 |  |  | Cn1cc(NC(=O)c2sccc2Cl)cc1-c1nc2cc(C(=O)NCCN3CCOCC3)ccc2[nH]1 |  | > 32 µg/mL |  | 4 µg/mL (≈ 7.8 µM) | 8 µg/mL (≈ 15.6 µM) | 8 µg/mL (≈ 15.6 µM) | 4 µg/mL (≈ 7.8 µM) | ~500 nM | inactive | inactive |  |  |  |  | 
3 |  |  | Cn1cc(NC(=O)c2ccc(Cl)cc2F)cc1C(=O)Nc1cc(-c2nc3cc(C(=O)NCCN4CCOCC4)ccc3[nH]2)n(C)c1 | 0.13 µg/mL (≈ 0.201 µM) | 8 µg/mL (≈ 12.4 µM) | 0.13 µg/mL (≈ 0.201 µM) | 0.03 µg/mL (≈ 0.0464 µM) | 0.13 µg/mL (≈ 0.201 µM) | 0.25 µg/mL (≈ 0.386 µM) | 0.03 µg/mL (≈ 0.0464 µM) |  |  |  |  |  |  |  | 
4 |  |  | Cn1cc(NC(=O)c2cc3cc4c(cc3s2)OCO4)cc1-c1nc2cc(C(=O)NCCN3CCOCC3)ccc2[nH]1 | 0.03 µg/mL (≈ 0.0524 µM) | 0.5 µg/mL (≈ 0.873 µM) | 0.06 µg/mL (≈ 0.105 µM) | 0.06 µg/mL (≈ 0.105 µM) | 0.03 µg/mL (≈ 0.0524 µM) | 0.03 µg/mL (≈ 0.0524 µM) | 0.03 µg/mL (≈ 0.0524 µM) |  |  |  | 0.031 µg/mL (≈ 0.0541 µM) | 32 µg/mL (≈ 55.9 µM) | 0.06 µg/mL (≈ 0.105 µM) |  | 
5 |  |  | Cn1cc(NC(=O)c2sccc2Cl)cc1C(=O)Nc1cc(-c2nc3cc(C(=O)NCCN4CCCCC4)ccc3[nH]2)n(C)c1 | 0.5 µg/mL (≈ 0.79 µM) | > 32 µg/mL | 0.13 µg/mL (≈ 0.205 µM) | 0.25 µg/mL (≈ 0.395 µM) | 0.5 µg/mL (≈ 0.79 µM) | 2 µg/mL (≈ 3.16 µM) | 0.5 µg/mL (≈ 0.79 µM) |  |  |  |  |  |  |  | 
6 |  |  | Cn1cc(NC(=O)c2sc3ccccc3c2Cl)cc1-c1nc2cc(C(=O)NCCN3CCOCC3)ccc2[nH]1 | 0.25 µg/mL (≈ 0.444 µM) | > 32 µg/mL | 0.25 µg/mL (≈ 0.444 µM) | 0.13 µg/mL (≈ 0.231 µM) | 0.13 µg/mL (≈ 0.231 µM) | 0.25 µg/mL (≈ 0.444 µM) | 0.5 µg/mL (≈ 0.888 µM) |  |  |  |  |  |  |  | 
7 |  |  | Cn1cc(NC(=O)c2sccc2Cl)cc1C(=O)Nc1cc(-c2nc3cc(C(=O)NCCN4CCSCC4)ccc3[nH]2)n(C)c1 | 0.13 µg/mL (≈ 0.2 µM) | > 32 µg/mL | 0.06 µg/mL (≈ 0.0921 µM) | 0.13 µg/mL (≈ 0.2 µM) | 0.5 µg/mL (≈ 0.768 µM) | 1 µg/mL (≈ 1.54 µM) | 0.13 µg/mL (≈ 0.2 µM) |  |  |  |  |  |  |  | 
8 |  |  | Cn1cc(NC(=O)c2ccc(Cl)cc2F)cc1-c1nc2cc(C(=O)NCCN3CCOCC3)ccc2[nH]1 | 0.06 µg/mL (≈ 0.114 µM) | > 32 µg/mL | 0.03 µg/mL (≈ 0.0571 µM) | 0.03 µg/mL (≈ 0.0571 µM) | 0.25 µg/mL (≈ 0.476 µM) | 0.13 µg/mL (≈ 0.248 µM) | 0.03 µg/mL (≈ 0.0571 µM) |  |  |  |  |  |  |  | 
9 | 1 µg/mL (≈ 1.56 µM) | 2 µg/mL (≈ 3.12 µM) | Cn1cc(NC(=O)c2cc(NC(=O)c3cc(NC(=O)c4sccc4Cl)cn3C)cn2C)cc1C(=O)NCCN1CCOCC1 |  | > 32 µg/mL |  | 0.13 µg/mL (≈ 0.203 µM) |  |  |  |  |  |  |  |  |  |  | 
10 |  |  | Cn1cc(NC(=O)c2cc3ccccc3cn2)cc1-c1nc2cc(C(=O)NCCN3CCOCC3)ccc2[nH]1 | 1 µg/mL (≈ 1.91 µM) | > 32 µg/mL | 0.5 µg/mL (≈ 0.955 µM) | 0.25 µg/mL (≈ 0.477 µM) | 0.5 µg/mL (≈ 0.955 µM) | 0.5 µg/mL (≈ 0.955 µM) | 0.5 µg/mL (≈ 0.955 µM) | ~10 nM |  |  |  |  |  |  | 
11 | 0.25 µg/mL (≈ 0.394 µM) |  | Cn1cc(NC(=O)c2ccc3[nH]c(-c4cc(NC(=O)c5sccc5Cl)cn4C)nc3c2)cc1C(=O)NCCN1CCOCC1 |  | > 32 µg/mL |  | 0.25 µg/mL (≈ 0.394 µM) |  |  |  |  |  |  |  |  |  |  | 0.13 µg/mL (≈ 0.205 µM)
12 |  |  | Cn1cc(NC(=O)c2sc3ccccc3c2Cl)cc1C(=O)Nc1cc(-c2nc3cc(C(=O)NCCN4CCOCC4)ccc3[nH]2)n(C)c1 | 0.25 µg/mL (≈ 0.365 µM) | > 32 µg/mL | 0.13 µg/mL (≈ 0.19 µM) | 0.13 µg/mL (≈ 0.19 µM) | 0.5 µg/mL (≈ 0.73 µM) | 0.13 µg/mL (≈ 0.19 µM) | 0.25 µg/mL (≈ 0.365 µM) |  |  |  |  |  |  |  | 

Row | Compound | MIC (Enterococcus faecalis [10]) | MIC (Staphylococcus aureus [11]) | MIC (Enterococcus faecalis [1]) | MIC (Escherichia coli) | MIC (Streptococcus pneumoniae [2]) | MIC (Streptococcus pneumoniae [3]) | MIC (Staphylococcus aureus [4]) | MIC (Staphylococcus aureus [5]) | MIC (Enterococcus faecalis [6]) | Kd (Nucleic Acid) | MIC (Enterococcus faecalis [7]) | MIC (Streptococcus pneumoniae [8]) | MIC (Moraxella catarrhalis) | MIC (Pseudomonas aeruginosa) | MIC (Haemophilus influenzae) | Protective dose (Mus musculus) | MIC (Staphylococcus aureus [9])
13 | Cn1cc(NC(=O)c2sccc2Cl)cc1C(=O)Nc1cc(-c2nc3cc(C(=O)NCCN4CCOCC4)ccc3[nH]2)n(C)c1 | 0.25 µg/mL (≈ 0.394 µM) |  | 0.13 µg/mL (≈ 0.205 µM) | 4 µg/mL (≈ 6.3 µM) | 0.03 µg/mL (≈ 0.0472 µM) | 0.25 µg/mL (≈ 0.394 µM) | 0.25 µg/mL (≈ 0.394 µM) |  |  | < 0.1 nM |  |  |  |  |  | 50 mg/kg and 20 mg/kg | 0.25 µg/mL (≈ 0.394 µM)
